Experimental data: ChEMBL document CHEMBL4616659, “Talarolactone A, an Isocoumarin Derivative Fused with Dihydrothiophene with Selective Antimigratory Activity from the Endolichenic Fungus Talaromyces sp” (J Nat Prod, 2020)
The source made the active and inactive calls. The calls are words filed in the database; no cut-off is given here.

Tests used:
Staphylococcus aureus [1] = assay: Antibacterial activity against Staphylococcus aureus ATCC 29213 up to 100 ug/ml incubated for 20 hrs by microbroth dilution method; assay type: functional, organism-based
[2] = Cytotoxicity against human HBE cells at 6.25 to 50 ug/ml incubated for 24 hrs by MTT assay; assay type: cell-based
Staphylococcus aureus [3] = assay: Antibacterial activity against Methicillin-resistant Staphylococcus aureus up to 100 ug/ml incubated for 20 hrs by microbroth dilution method; assay type: functional, organism-based
Klebsiella pneumoniae [4] = assay: Antibacterial activity against Klebsiella pneumoniae harboring NDM1 mutant up to 100 ug/ml incubated for 20 hrs by microbroth dilution method; assay type: functional, organism-based
[5] = Cytotoxicity against human THLE cells at 6.25 to 50 ug/ml incubated for 24 hrs by MTT assay; assay type: cell-based
Enterobacter cloacae = assay: Antibacterial activity against Enterobacter cloacae ATCC 13047 up to 100 ug/ml incubated for 20 hrs by microbroth dilution method; assay type: functional, organism-based
Acinetobacter baumannii = assay: Antibacterial activity against Acinetobacter baumannii ATCC 19004 up to 100 ug/ml incubated for 20 hrs by microbroth dilution method; assay type: functional, organism-based
HepG2 [6] = assay: Cytotoxicity against human HepG2 cells at 6.25 to 50 ug/ml incubated for 24 hrs by MTT assay; assay type: functional, cell-based
HepG2 [7] = assay: Antimigratory activity against human HepG2 cells at 25 ug/ml measured up to 60 hrs by microscopic based wound healing assay; assay type: functional, cell-based
A549 = assay: Cytotoxicity against human A549 cells at 6.25 to 50 ug/ml incubated for 24 hrs by MTT assay; assay type: functional, cell-based
[8] = Toxicity in zebrafish AB embryo up to 100 ug/ml after 24 to 88 hrs by inverted microscope; parameters: species or system Danio rerio; conditions: in vivo
Escherichia coli = assay: Antibacterial activity against Escherichia coli ATCC 25922 up to 100 ug/ml incubated for 20 hrs by microbroth dilution method; assay type: functional, organism-based
Salmonella typhimurium = assay: Antibacterial activity against Salmonella typhimurium ATCC 14028 up to 100 ug/ml incubated for 20 hrs by microbroth dilution method; assay type: functional, organism-based; conditions: Salmonella enterica subsp. enterica serovar Typhimurium
MDA-MB-231 = assay: Cytotoxicity against human MDA-MB-231 cells at 6.25 to 50 ug/ml incubated for 24 hrs by MTT assay; assay type: functional, cell-based
MCF7 = assay: Cytotoxicity against human MCF7 cells at 6.25 to 50 ug/ml incubated for 24 hrs by MTT assay; assay type: functional, cell-based
Klebsiella pneumoniae [9] = assay: Antibacterial activity against Klebsiella pneumoniae ATCC 43816 up to 100 ug/ml incubated for 20 hrs by microbroth dilution method; assay type: functional, organism-based

COc1cc(C(=O)O)c2c3c1C(=O)O[C@@H](C)[C@@H]3CS2
Activity (Staphylococcus aureus [1]): inactive | Activity [2]: Non-Toxic | Activity (Staphylococcus aureus [3]): inactive | Activity (Klebsiella pneumoniae [4]): inactive | Activity [5]: Non-Toxic | Activity (Enterobacter cloacae): inactive | Activity (Acinetobacter baumannii): inactive | Activity (HepG2 [6]): inactive | Activity (HepG2 [7]): Active | Activity (A549): inactive | Activity [8]: Non-Toxic | Activity (Escherichia coli): inactive | Activity (Salmonella typhimurium): inactive | Activity (MDA-MB-231): inactive | Activity (MCF7): inactive | Activity (Klebsiella pneumoniae [9]): inactive
